# What was measured:
# [1] = molecular target: T1, Wee-1 kinase (Homo sapiens, UniProt P30291); test: Inhibitory activity against Wee-1 kinase (Lanthra Screen Wee-1 kinase kit, Tracer 178); type: binding; details: Wee-1 kinase 5 nM, Tracer 178 50 nM, 1 h room temperature
# T1 construct: purchased Invitrogen
# Procedure, shortened: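 LanthaScreen binding format: Wee-1 kinase (5 nM final) with Eu-anti-GST antibody (2 nM final) and kinase Tracer 178 (50 nM final), compounds serially diluted in DMSO. 1 h at room temperature before reading. IC50 relative to DMSO control.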
# [2] = tested on: HT29 cells; test: Antiproliferative activity against HT29 cells (Cell Titer-Lumi, ATP content); type: cell-based; details: Homo sapiens, HT-29, 72 after compound addition, read-out: HT-29 cells Anti-proliferative activity (IC50 for the inhibition against HT-29 cell growth)
# Procedure, shortened: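 3000 cells per well, allowed to adhere overnight, then exposed to a gradient dilution of compound for 72 (units as printed). Cellular ATP read by luminescence (Cell Titer-Lumi) as a growth measure; IC50 for growth inhibition calculated.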
# T1 sequence (P30291 whole entry): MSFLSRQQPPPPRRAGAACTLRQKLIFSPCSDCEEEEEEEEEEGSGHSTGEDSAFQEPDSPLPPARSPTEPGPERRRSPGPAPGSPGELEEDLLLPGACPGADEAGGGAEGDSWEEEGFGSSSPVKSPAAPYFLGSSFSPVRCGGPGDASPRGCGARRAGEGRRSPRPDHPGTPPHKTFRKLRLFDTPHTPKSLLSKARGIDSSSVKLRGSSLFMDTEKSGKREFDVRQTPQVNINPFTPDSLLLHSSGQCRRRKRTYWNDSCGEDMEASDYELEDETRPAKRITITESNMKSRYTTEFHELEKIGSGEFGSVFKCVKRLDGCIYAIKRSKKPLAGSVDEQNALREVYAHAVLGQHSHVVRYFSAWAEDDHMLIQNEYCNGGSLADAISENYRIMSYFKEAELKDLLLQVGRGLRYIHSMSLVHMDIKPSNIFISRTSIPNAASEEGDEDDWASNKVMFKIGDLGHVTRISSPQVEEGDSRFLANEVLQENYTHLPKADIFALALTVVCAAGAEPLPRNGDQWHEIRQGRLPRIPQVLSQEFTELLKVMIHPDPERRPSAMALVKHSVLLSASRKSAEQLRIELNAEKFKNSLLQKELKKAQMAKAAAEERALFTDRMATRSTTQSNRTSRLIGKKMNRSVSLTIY
smiles,measurement,setting,value
C=CCn1c(=O)c2cnc(Nc3ccc(N4CCC(N5CCCCC5)CC4)c(OC)c3)nc2n1-c1ccc(=O)n(C(C)C)n1 [Compound 147],IC50,[1],≤ 0.03 µM
same,IC50,[2],≤ 1 µM
C=CCn1c(=O)c2cnc(Nc3ccc(N4CCC(N5CCOCC5)CC4)cc3)nc2n1-c1ccc(=O)n(C(C)C)n1 [Compound 148],IC50,[1],≤ 0.03 µM
same,IC50,[2],≤ 1 µM
C=CCn1c(=O)c2cnc(Nc3ccc(N4CCC(N5CCOCC5)CC4)c(C)c3)nc2n1-c1ccc(=O)n(C(C)C)n1 [Compound 149],IC50,[1],≤ 0.03 µM
same,IC50,[2],≤ 1 µM
C=CCn1c(=O)c2cnc(Nc3ccc(N4CCC(N5CCOCC5)CC4)c(OC)c3)nc2n1-c1ccc(=O)n(C(C)C)n1 [Compound 150],IC50,[1],≤ 0.03 µM
same,IC50,[2],≤ 1 µM
C=CCn1c(=O)c2cnc(Nc3ccc(N4CCC(N5CCC(F)(F)CC5)CC4)cc3)nc2n1-c1ccc(=O)n(C(C)C)n1 [Compound 151],IC50,[1],≤ 0.03 µM
same,IC50,[2],≤ 1 µM
C=CCn1c(=O)c2cnc(Nc3ccc(N4CCC(N5CCC(F)(F)CC5)CC4)c(C)c3)nc2n1-c1ccc(=O)n(C(C)C)n1 [Compound 152],IC50,[1],≤ 0.03 µM
same,IC50,[2],≤ 1 µM
C=CCn1c(=O)c2cnc(Nc3ccc(N4CCC(N5CCC(F)(F)CC5)CC4)c(OC)c3)nc2n1-c1ccc(=O)n(C(C)C)n1 [Compound 153],IC50,[1],≤ 0.03 µM
same,IC50,[2],≤ 1 µM
C=CCn1c(=O)c2cnc(Nc3ccc(N4CC5(CNC5)C4)cc3)nc2n1-c1ccc(=O)n(C(C)C)n1 [Compound 154],IC50,[1],≤ 0.03 µM
same,IC50,[2],1 to 3 µM
C=CCn1c(=O)c2cnc(Nc3ccc(N4CC5(CNC5)C4)c(C)c3)nc2n1-c1ccc(=O)n(C(C)C)n1 [Compound 155],IC50,[1],≤ 0.03 µM
same,IC50,[2],≤ 1 µM
C=CCn1c(=O)c2cnc(Nc3ccc(N4CC5(CNC5)C4)c(OC)c3)nc2n1-c1ccc(=O)n(C(C)C)n1 [Compound 156],IC50,[1],≤ 0.03 µM
same,IC50,[2],1 to 3 µM
C=CCn1c(=O)c2cnc(Nc3ccc(N4CC5(CN(C)C5)C4)cc3)nc2n1-c1ccc(=O)n(C(C)C)n1 [Compound 157],IC50,[1],≤ 0.03 µM
same,IC50,[2],≤ 1 µM
C=CCn1c(=O)c2cnc(Nc3ccc(N4CC5(CN(C)C5)C4)c(C)c3)nc2n1-c1ccc(=O)n(C(C)C)n1 [Compound 158],IC50,[1],≤ 0.03 µM
same,IC50,[2],≤ 1 µM
C=CCn1c(=O)c2cnc(Nc3ccc(N4CC5(CN(C)C5)C4)c(OC)c3)nc2n1-c1ccc(=O)n(C(C)C)n1 [Compound 159],IC50,[1],≤ 0.03 µM
same,IC50,[2],≤ 1 µM
C=CCn1c(=O)c2cnc(Nc3ccc(N4CC5(CCNC5)C4)cc3)nc2n1-c1ccc(=O)n(C(C)C)n1 [Compound 160],IC50,[1],≤ 0.03 µM
same,IC50,[2],1 to 3 µM
C=CCn1c(=O)c2cnc(Nc3ccc(N4CC5(CCNC5)C4)c(C)c3)nc2n1-c1ccc(=O)n(C(C)C)n1 [Compound 161],IC50,[1],≤ 0.03 µM
same,IC50,[2],1 to 3 µM
C=CCn1c(=O)c2cnc(Nc3ccc(N4CC5(CCNC5)C4)c(OC)c3)nc2n1-c1ccc(=O)n(C(C)C)n1 [Compound 162],IC50,[1],≤ 0.03 µM
same,IC50,[2],≤ 1 µM
C=CCn1c(=O)c2cnc(Nc3ccc(N4CC5(CCN(C)C5)C4)cc3)nc2n1-c1ccc(=O)n(C(C)C)n1 [Compound 163],IC50,[1],≤ 0.03 µM
same,IC50,[2],≤ 1 µM
C=CCn1c(=O)c2cnc(Nc3ccc(N4CC5(CCN(C)C5)C4)c(C)c3)nc2n1-c1ccc(=O)n(C(C)C)n1 [Compound 164],IC50,[1],≤ 0.03 µM
same,IC50,[2],≤ 1 µM
C=CCn1c(=O)c2cnc(Nc3ccc(N4CC5(CCN(C)C5)C4)c(OC)c3)nc2n1-c1ccc(=O)n(C(C)C)n1 [Compound 165],IC50,[1],≤ 0.03 µM
same,IC50,[2],≤ 1 µM
C=CCn1c(=O)c2cnc(Nc3ccc(N4CC5(CCNCC5)C4)cc3)nc2n1-c1ccc(=O)n(C(C)C)n1 [Compound 166],IC50,[1],0.03 to 0.1 µM
same,IC50,[2],1 to 3 µM
C=CCn1c(=O)c2cnc(Nc3ccc(N4CC5(CCNCC5)C4)c(C)c3)nc2n1-c1ccc(=O)n(C(C)C)n1 [Compound 167],IC50,[1],0.03 to 0.1 µM
same,IC50,[2],1 to 3 µM
C=CCn1c(=O)c2cnc(Nc3ccc(N4CC5(CCNCC5)C4)c(OC)c3)nc2n1-c1ccc(=O)n(C(C)C)n1 [Compound 168],IC50,[1],0.03 to 0.1 µM
same,IC50,[2],1 to 3 µM
C=CCn1c(=O)c2cnc(Nc3ccc(N4CCC5(CNC5)C4)cc3)nc2n1-c1ccc(=O)n(C(C)C)n1 [Compound 169],IC50,[1],≤ 0.03 µM
same,IC50,[2],1 to 3 µM
C=CCn1c(=O)c2cnc(Nc3ccc(N4CCC5(CNC5)C4)c(C)c3)nc2n1-c1ccc(=O)n(C(C)C)n1 [Compound 170],IC50,[1],≤ 0.03 µM
same,IC50,[2],≤ 1 µM
C=CCn1c(=O)c2cnc(Nc3ccc(N4CCC5(CNC5)C4)c(OC)c3)nc2n1-c1ccc(=O)n(C(C)C)n1 [Compound 171],IC50,[1],≤ 0.03 µM
same,IC50,[2],≤ 1 µM
C=CCn1c(=O)c2cnc(Nc3ccc(N4CCC5(CN(C)C5)C4)cc3)nc2n1-c1ccc(=O)n(C(C)C)n1 [Compound 172],IC50,[1],≤ 0.03 µM
same,IC50,[2],≤ 1 µM
C=CCn1c(=O)c2cnc(Nc3ccc(N4CCC5(CN(C)C5)C4)c(C)c3)nc2n1-c1ccc(=O)n(C(C)C)n1 [Compound 173],IC50,[1],≤ 0.03 µM
same,IC50,[2],≤ 1 µM
C=CCn1c(=O)c2cnc(Nc3ccc(N4CCC5(CN(C)C5)C4)c(OC)c3)nc2n1-c1ccc(=O)n(C(C)C)n1 [Compound 174],IC50,[1],≤ 0.03 µM
same,IC50,[2],≤ 1 µM
C=CCn1c(=O)c2cnc(Nc3ccc(N4CCC5(CC4)CNC5)cc3)nc2n1-c1ccc(=O)n(C(C)C)n1 [Compound 175],IC50,[1],≤ 0.03 µM
same,IC50,[2],1 to 3 µM
C=CCn1c(=O)c2cnc(Nc3ccc(N4CCC5(CC4)CNC5)c(C)c3)nc2n1-c1ccc(=O)n(C(C)C)n1 [Compound 176],IC50,[1],≤ 0.03 µM
same,IC50,[2],≤ 1 µM
C=CCn1c(=O)c2cnc(Nc3ccc(N4CCC5(CC4)CNC5)c(OC)c3)nc2n1-c1ccc(=O)n(C(C)C)n1 [Compound 177],IC50,[1],≤ 0.03 µM
same,IC50,[2],≤ 1 µM
C=CCn1c(=O)c2cnc(Nc3ccc(N4CCC5(CC4)CN(C)C5)cc3)nc2n1-c1ccc(=O)n(C(C)C)n1 [Compound 178],IC50,[1],≤ 0.03 µM
same,IC50,[2],≤ 1 µM
C=CCn1c(=O)c2cnc(Nc3ccc(N4CCC5(CC4)CN(C)C5)c(C)c3)nc2n1-c1ccc(=O)n(C(C)C)n1 [Compound 179],IC50,[1],≤ 0.03 µM
same,IC50,[2],≤ 1 µM
C=CCn1c(=O)c2cnc(Nc3ccc(N4CCC5(CC4)CN(C)C5)c(OC)c3)nc2n1-c1ccc(=O)n(C(C)C)n1 [Compound 180],IC50,[1],≤ 0.03 µM
same,IC50,[2],≤ 1 µM
C=CCn1c(=O)c2cnc(Nc3ccc(N4CCC5(CCNCC5)CC4)cc3)nc2n1-c1ccc(=O)n(C(C)C)n1 [Compound 181],IC50,[1],≤ 0.03 µM
same,IC50,[2],1 to 3 µM
C=CCn1c(=O)c2cnc(Nc3ccc(N4CCC5(CCNCC5)CC4)c(C)c3)nc2n1-c1ccc(=O)n(C(C)C)n1 [Compound 182],IC50,[1],≤ 0.03 µM
same,IC50,[2],≤ 1 µM
C=CCn1c(=O)c2cnc(Nc3ccc(N4CCC5(CCNCC5)CC4)c(OC)c3)nc2n1-c1ccc(=O)n(C(C)C)n1 [Compound 183],IC50,[1],≤ 0.03 µM
same,IC50,[2],≤ 1 µM
C=CCn1c(=O)c2cnc(Nc3ccc(N4CCC5(CCN(C)CC5)CC4)cc3)nc2n1-c1ccc(=O)n(C(C)C)n1 [Compound 184],IC50,[1],≤ 0.03 µM
same,IC50,[2],≤ 1 µM
C=CCn1c(=O)c2cnc(Nc3ccc(N4CCC5(CCN(C)CC5)CC4)c(C)c3)nc2n1-c1ccc(=O)n(C(C)C)n1 [Compound 185],IC50,[1],≤ 0.03 µM
same,IC50,[2],≤ 1 µM
C=CCn1c(=O)c2cnc(Nc3ccc(N4CCC5(CCN(C)CC5)CC4)c(OC)c3)nc2n1-c1ccc(=O)n(C(C)C)n1 [Compound 186],IC50,[1],≤ 0.03 µM
same,IC50,[2],≤ 1 µM
C=CCn1c(=O)c2cnc(Nc3ccc(N4CC5(CCN5C)C4)c(C)c3)nc2n1-c1ccc(=O)n(C(C)C)n1 [Compound 187],IC50,[1],≤ 0.03 µM
same,IC50,[2],≤ 1 µM
C=CCn1c(=O)c2cnc(Nc3ccc(N4CC5(CCCN5C)C4)c(C)c3)nc2n1-c1ccc(=O)n(C(C)C)n1 [Compound 188],IC50,[1],≤ 0.03 µM
same,IC50,[2],≤ 1 µM
C=CCn1c(=O)c2cnc(Nc3ccc(N4CC5(CCCCN5C)C4)c(C)c3)nc2n1-c1ccc(=O)n(C(C)C)n1 [Compound 189],IC50,[1],0.03 to 0.1 µM
same,IC50,[2],≤ 1 µM
C=CCn1c(=O)c2cnc(Nc3ccc(C4CCNCC4)cc3)nc2n1-c1ccc(=O)n(C(C)C)n1 [Compound 190],IC50,[1],≤ 0.03 µM
same,IC50,[2],≤ 1 µM
C=CCn1c(=O)c2cnc(Nc3ccc(C4CCN(C)CC4)cc3)nc2n1-c1ccc(=O)n(C(C)C)n1 [Compound 191],IC50,[1],≤ 0.03 µM
same,IC50,[2],≤ 1 µM
C=CCn1c(=O)c2cnc(Nc3ccc(C4CCNCC4)c(C)c3)nc2n1-c1ccc(=O)n(C(C)C)n1 [Compound 192],IC50,[1],≤ 0.03 µM
same,IC50,[2],≤ 1 µM
C=CCn1c(=O)c2cnc(Nc3ccc(C4CCN(C)CC4)c(C)c3)nc2n1-c1ccc(=O)n(C(C)C)n1 [Compound 193],IC50,[1],≤ 0.03 µM
same,IC50,[2],≤ 1 µM
C=CCn1c(=O)c2cnc(Nc3ccc(C4CCNCC4)c(OC)c3)nc2n1-c1ccc(=O)n(C(C)C)n1 [Compound 194],IC50,[1],≤ 0.03 µM
same,IC50,[2],≤ 1 µM
C=CCn1c(=O)c2cnc(Nc3ccc(C4CCN(C)CC4)c(OC)c3)nc2n1-c1ccc(=O)n(C(C)C)n1 [Compound 195],IC50,[1],≤ 0.03 µM
same,IC50,[2],≤ 1 µM
C=CCn1c(=O)c2cnc(Nc3ccc(C4CCNCC4)c(C(F)(F)F)c3)nc2n1-c1ccc(=O)n(C(C)C)n1 [Compound 196],IC50,[1],≤ 0.03 µM
same,IC50,[2],≤ 1 µM
C=CCn1c(=O)c2cnc(Nc3ccc(C4CCN(C)CC4)c(C(F)(F)F)c3)nc2n1-c1ccc(=O)n(C(C)C)n1 [Compound 197],IC50,[1],≤ 0.03 µM
same,IC50,[2],≤ 1 µM
C=CCn1c(=O)c2cnc(Nc3ccc(C4CCNCC4)c(CC(F)(F)F)c3)nc2n1-c1ccc(=O)n(C(C)C)n1 [Compound 198],IC50,[1],≤ 0.03 µM
same,IC50,[2],≤ 1 µM
C=CCn1c(=O)c2cnc(Nc3ccc(C4CCN(C)CC4)c(CC(F)(F)F)c3)nc2n1-c1ccc(=O)n(C(C)C)n1 [Compound 199],IC50,[1],≤ 0.03 µM
same,IC50,[2],≤ 1 µM
C=CCn1c(=O)c2cnc(Nc3ccc(C4(C)CCNCC4)cc3)nc2n1-c1ccc(=O)n(C(C)C)n1 [Compound 200],IC50,[1],≤ 0.03 µM
same,IC50,[2],≤ 1 µM
